According to US10323018B2 (Millennium Pharmaceuticals, Inc., priority 2015, dated 2019):
Like-named read-outs stand apart in the source and are kept apart here.

Columns and labels:
hNAMPT protein = hNAMPT protein (Homo sapiens (Human), UniProt P43490); assay: NAMPT enzyme assay (TR-FRET/HTRF with BodiPY ligand); format: binding; conditions: for inhibition at 1 µM: read-out: Percent Inhibition; for IC50: NAMPT inhibition, IC50 range class
Procedure, shortened: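 Ligand displacement by TR-FRET: BodiPY emission (520 nm) over terbium (486 nm) after 320 nm excitation. Compound, BodiPY ligand, hNAMPT and anti-6His-Tb incubated 1 h at room temperature, dark, at pH 7.5. Percent inhibition computed versus DMSO; concentration-response curves fitted for IC50.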

PC3 cells = assay: PC3 growth inhibition (Cell-titer glo, 72 hours); format: cell-based; conditions: Homo sapiens, PC-3, 72 h, read-out: Percent Viability, PC3 cells, compound concentration 1.667 μM, 72 hours
Procedure, shortened: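 After 72 h compound treatment in AIM serum-free medium (37 °C, 5% CO2), viability of overnight-plated PC3 cells (8×10^4 cells/ml, RPMI1640-maintained) is read by CellTiter-Glo luminescence versus DMSO. Curves give GI50, LD50 or single-concentration % remaining viability.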

[1] = NAMPT inhibition at compound concentration 1 μM

Chain of hNAMPT protein (P43490 whole entry): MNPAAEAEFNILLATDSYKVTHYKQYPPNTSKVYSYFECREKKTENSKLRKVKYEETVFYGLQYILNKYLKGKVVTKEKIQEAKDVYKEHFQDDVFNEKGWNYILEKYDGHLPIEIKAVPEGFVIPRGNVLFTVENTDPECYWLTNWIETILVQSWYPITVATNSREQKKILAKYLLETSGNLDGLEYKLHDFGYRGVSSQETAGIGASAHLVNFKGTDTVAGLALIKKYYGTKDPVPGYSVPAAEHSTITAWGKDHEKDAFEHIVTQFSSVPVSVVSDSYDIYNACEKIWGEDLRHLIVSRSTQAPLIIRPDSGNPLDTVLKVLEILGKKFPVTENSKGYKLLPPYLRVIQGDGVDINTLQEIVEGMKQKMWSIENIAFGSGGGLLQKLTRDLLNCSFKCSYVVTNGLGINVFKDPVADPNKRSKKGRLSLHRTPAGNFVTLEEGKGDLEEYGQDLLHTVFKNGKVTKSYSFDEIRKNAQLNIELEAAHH

| Structure (SMILES) | inhibition at 1 µM (hNAMPT protein; [1]) | IC50 (hNAMPT protein) | viability at 1.667 µM (PC3 cells) | inhibition at 1 µM (hNAMPT protein) |
| --- | --- | --- | --- | --- |
| CCOc1cc(-c2ccnc(OC)c2Cl)nc2cc(C(=O)NCCCc3nnc[nH]3)ccc12 [Compound I-166, 2-(3-chloro-2-methoxypyridin-4-yl)-4-ethoxy-N-[3-(4H-1,2,4-triazol-3-yl)propyl]quinoline-7-carboxamide] | 94% | 10 to 50 nM | 2% |  |
| CCOc1cc(-c2ccc(C)nc2)nc2cc(C(=O)NCCc3c[nH]nn3)ccc12 [Compound I-169, 4-ethoxy-2-(6-methylpyridin-3-yl)-N-[2-(1H-1,2,3-triazol-4-yl)ethyl]quinoline-7-carboxamide] | 97% | 10 to 50 nM | 3% |  |
| CCOc1cc(-c2ccc(F)cc2)nc2cc(C(=O)NCCCc3n[nH]nc3C)ccc12 [Compound I-133, 4-ethoxy-2-(4-fluorophenyl)-N-[3-(5-methyl-2H-1,2,3-triazol-4-yl)propyl]quinoline-7-carboxamide] | > 99% | < 10 nM | 2% |  |
| CCOc1cc(-c2ccnc(OC)c2)nc2cc(C(=O)NCCCc3[nH]nnc3C)ccc12 [Compound I-71, 4-ethoxy-2-(2-methoxypyridin-4-yl)-N-[3-(4-methyl-1H-1,2,3-triazol-5-yl)propyl]quinoline-7-carboxamide] | 97% | 10 to 50 nM | 2% |  |
| CCOc1cc(-c2ccc(=O)n(C)c2)nc2cc(C(=O)NCCc3c[nH]nc3C)ccc12 [Compound I-98, 4-ethoxy-2-(1-methyl-6-oxo-1,6-dihydropyridin-3-yl)-N-[2-(3-methyl-1H-pyrazol-4-yl)ethyl]quinoline-7-carboxamide] | 99% | 50 to 100 nM | 1% |  |
| CCOc1cc(-c2ccnc(OC)c2F)nc2cc(C(=O)NCCCc3nnc[nH]3)ccc12 [Compound I-90, 4-ethoxy-2-(3-fluoro-2-methoxypyridin-4-yl)-N-[3-(4H-1,2,4-triazol-3-yl)propyl]quinoline-7-carboxamide] | 97% | 10 to 50 nM | 1% |  |
| CCOc1cc(-c2cc(F)ccc2OC)nc2cc(C(=O)NCCCc3nnc[nH]3)ccc12 [Compound I-199, 4-ethoxy-2-(5-fluoro-2-methoxyphenyl)-N-[3-(4H-1,2,4-triazol-3-yl)propyl]quinoline-7-carboxamide] | 100% | 10 to 50 nM | 2% |  |
| CCOc1cc(-c2cnn(C)c2)nc2cc(C(=O)NCCCc3nnc[nH]3)ccc12 [Compound I-206, 4-ethoxy-2-(1-methyl-1H-pyrazol-4-yl)-N-[3-(4H-1,2,4-triazol-3-yl)propyl]quinoline-7-carboxamide] | 66% | > 100 nM | 2% |  |
| CCOc1cc(-c2ccc(Cl)cc2)nc2cc(C(=O)NCCCc3ncc[nH]3)ccc12 [Compound I-13, 2-(4-chlorophenyl)-4-ethoxy-N-[3-(1H-imidazol-2-yl)propyl]quinoline-7-carboxamide] |  | < 10 nM | 0% | > 99% |
| O=C(NCCCc1ncc[nH]1)c1ccc2c(CN3CCSCC3)nc(-c3ccc(Cl)cc3)nc2c1 [Compound I-26, 2-(4-chlorophenyl)-N-[3-(1H-imidazol-2-yl)propyl]-4-(thiomorpholin-4-ylmethyl)quinazoline-7-carboxamide] | 89% | > 100 nM | 1% |  |
| CCOc1nc(-c2ccc(Cl)cc2)nc2cc(C(=O)NCCCc3ncc[nH]3)ccc12 [Compound I-38, 2-(4-chlorophenyl)-4-ethoxy-N-[3-(1H-imidazol-2-yl)propyl]quinazoline-7-carboxamide] | > 99% | < 10 nM | 2% |  |
| CCOc1cc(-c2ccc(F)cc2OC)nc2cc(C(=O)NCCc3ncn[nH]3)ccc12 [Compound I-170, 4-ethoxy-2-(4-fluoro-2-methoxyphenyl)-N-[2-(1H-1,2,4-triazol-5-yl)ethyl]quinoline-7-carboxamide] | 93% | 50 to 100 nM | 2% |  |
| CCOc1cc(-c2ccc(F)cc2)nc2cc(C(=O)NCCCc3cnn[nH]3)ccc12 [Compound I-115, 4-ethoxy-2-(4-fluorophenyl)-N-[3-(1H-1,2,3-triazol-5-yl)propyl]quinoline-7-carboxamide] | > 99% | < 10 nM | 2% |  |
| CCOc1cc(-c2ccc(F)cc2)nc2cc(C(=O)N[C@H]3C[C@@H](c4ncc[nH]4)C3)ccc12 [Compound I-60, 4-Ethoxy-2-(4-fluorophenyl)-N-[cis-3-(1H-imidazol-2-yl)cyclobutyl]quinoline-7-carboxamide] | 99% | < 10 nM | 1% |  |
| COCCOCc1nc(-c2ccc(Cl)cc2)nc2cc(C(=O)NCCCc3nnc[nH]3)ccc12 [Compound I-64, N-(3-(4H-1,2,4-yriazol-3-yl)propyl)-2-(4-chlorophenyl)-4-((2-methoxyethoxy)methyl)quinazoline-7-carboxamide] | 91% | 50 to 100 nM | 1% |  |
| CCCc1nc(-c2ccc(Cl)cc2)nc2cc(C(=O)NCC3CC3c3ncc[nH]3)ccc12 (racemic) [Compound I-59, 2-(4-chlorophenyl)-N-{[trans-(1,2)-2-(1H-imidazol-2-yl)cyclopropyl]methyl}-4-propylquinazoline-7-carboxamide] | 90% | 50 to 100 nM | 2% |  |
| CCOc1cc(-c2ccc(F)cc2)nc2cc(C(=O)NCC3CC3c3ncc[nH]3)ccc12 (single isomer, unassigned) [Compound I-50, 4-Ethoxy-2-(4-fluorophenyl)-N-{[trans-(1,2)-2-(1H-imidazol-2-yl)cyclopropyl]methyl}quinoline-7-carboxamide] | 99% | < 10 nM | 3% |  |
| CCOc1cc(-c2cncc(OC)c2)nc2cc(C(=O)NCCCc3nnc[nH]3)ccc12 [Compound I-210, 4-ethoxy-2-(5-methoxypyridin-3-yl)-N-[3-(4H-1,2,4-triazol-3-yl)propyl]quinoline-7-carboxamide] | 94% | 10 to 50 nM | 1% |  |
| CCOc1cc(-c2ccc(F)cc2)nc2cc(C(=O)NCCCc3cc[nH]n3)ccc12 [Compound I-204, 4-ethoxy-2-(4-fluorophenyl)-N-[3-(1H-pyrazol-3-yl)propyl]quinoline-7-carboxamide] | 100% | < 10 nM | 2% |  |
| CCOc1cc(-c2ccc(F)cc2)nc2cc(C(=O)NCC(F)(F)Cc3nnc[nH]3)ccc12 [Compound I-91, N-[2,2-difluoro-3-(4H-1,2,4-triazol-3-yl)propyl]-4-ethoxy-2-(4-fluorophenyl)quinoline-7-carboxamide] | 80% | > 100 nM | 2% |  |
| CCOc1cc(-c2ccc(F)cc2)nc2cc(C(=O)NCCc3cn(C)cn3)ccc12 [Compound I-6, 4-ethoxy-2-(4-fluorophenyl)-N-[2-(1-methyl-1H-imidazol-4-yl)ethyl]quinoline-7-carboxamide] | 94% | 50 to 100 nM | 1% |  |
| CCOc1cc(-c2cc(OC)ncc2F)nc2cc(C(=O)NCCCc3nnc[nH]3)ccc12 [Compound I-225, 4-ethoxy-2-(5-fluoro-2-methoxypyridin-4-yl)-N-[3-(4H-1,2,4-triazol-3-yl)propyl]quinoline-7-carboxamide] | 97% | 10 to 50 nM | 2% |  |
| CCOc1c(F)c(-c2ccc(F)cc2)nc2cc(C(=O)NCCCc3cnn[nH]3)ccc12 [Compound I-73, 4-ethoxy-3-fluoro-2-(4-fluorophenyl)-N-[3-(1H-1,2,3-triazol-4-yl)propyl]quinoline-7-carboxamide] | 100% | < 10 nM | 1% |  |
| CCOc1cc(-c2ccc(F)cc2OC)nc2cc(C(=O)NCCCc3nnc[nH]3)ccc12 [Compound I-165, 4-ethoxy-2-(4-fluoro-2-methoxyphenyl)-N-[3-(4H-1,2,4-triazol-3-yl)propyl]quinoline-7-carboxamide] | 99% | 10 to 50 nM | 1% |  |
| COc1nc(-c2ccc(Cl)cc2)nc2cc(C(=O)NCCCc3ncc[nH]3)ccc12 [Compound I-10, 2-(4-chlorophenyl)-N-[3-(1H-imidazol-2-yl)propyl]-4-methoxyquinazoline-7-carboxamide] | 100% | < 10 nM | 1% |  |
| CCCc1nc(-c2ccc(Cl)cc2)nc2cc(C(=O)NCCCc3ncc[nH]3)ccc12 [Compound I-4, 2-(4-chlorophenyl)-N-[3-(1H-imidazol-2-yl)propyl]-4-propylquinazoline-7-carboxamide] | 99% | < 10 nM | 1% |  |
| CCCc1cc(-c2ccc(F)cc2)nc2cc(C(=O)NCCCc3cc[nH]n3)ccc12 [Compound I-147, 2-(4-fluorophenyl)-4-propyl-N-[3-(1H-pyrazol-3-yl)propyl]quinoline-7-carboxamide] | 92% | 50 to 100 nM | 2% |  |
| O=C(NCCCc1ncc[nH]1)c1ccc2c(OCC3CC3)nc(-c3ccc(F)cc3)nc2c1 [Compound I-40, 4-(cyclopropylmethoxy)-2-(4-fluorophenyl)-N-[3-(1H-imidazol-2-yl)propyl]quinazoline-7-carboxamide] | > 99% | < 10 nM | 3% |  |
